We go through four compounds from US4622217A, “I-4-amino-3-iodobenzylguanidine as imaging and therapeutic agent” (The Regents of the University of Michigan, priority 1984, dated 1986).

Structures are written as SMILES. A value given as a limit tells only on which side of the number the result lay.

Series [1] in a line: Biological tissue distribution in monkeys after intravenous injection. In kind it is in vivo, monkey. Conditions: 3 hours, i.v. 100 μCi. The procedure: (§1) Biological tissue distribution studies were performed in rats, dogs, and monkeys injected intravenously with 25 μCi, 100 μCi and 100 μCi, respectively, of I-125 4-amino-3-iodobenzylguanidine in an average volume of 0.2 ml, 2 ml, and 1 ml, respectively. Representative samples of tissues were counted in an autogamma counter with corrections made for radioactive decay, background, and counter efficiency. To normalize for differences in animal weights, tissue concentrations are expressed as percent kilogram dose per gram.

Series [2] in a line: Biological tissue distribution in dogs after intravenous injection. The settings on record: i.v. 100 μCi. In kind it is in vivo, dog (Female Mongrel). The method, then:
as §1

Series [3] is described as follows: Biological tissue distribution in rats after intravenous injection. The settings on record: 90 min, i.v. 25 μCi. In kind it is in vivo, rat (Female Sprague-Dawley). The procedure:
as §1

A short description of series [4]: Radio-decomposition on storage in buffer. In kind it is physicochemical. The settings on record: up to 14 days, pH 4.8 sodium acetate buffer (0.005M), 1% (v/v) benzyl alcohol, 4° C., dark.
In series [5] the test system is adrenergic tissues. Nature of the series: Accumulation in adrenergic tissues. In kind it is in vivo. The settings on record: localizes in adrenergic neurons of the heart and chromaffin granules of the adrenal medulla.
Series [6] relates to adrenergic nerves of the heart. The series can be described thus: Selectivity for the adrenergic nerves of the heart. The settings on record: in vivo.

Turning to `N=C(N)NCc1ccc(N)c([125I])c1` [I-125 4-amino-3-iodobenzylguanidine], the “tissue concentration (Mean + S.E.M.)” value in series [1] (Adrenal Cortex) is recorded as 0.60 ± .04 % Kg Dose/g; in series [1] (Adrenal Modullae), 1.98 ± .14 % Kg Dose/g; in series [1] (Blood) it was 0.03 ± .01 % Kg Dose/g; in series [1] (Heart (Left Ventricle)) it was 0.85 ± .11 % Kg Dose/g; in series [1] (Liver), 0.17 ± .04 % Kg Dose/g; in series [1] (Lung), 0.99 ± .53 % Kg Dose/g. In addition, the “tissue concentration (Mean + S.E.M.)” value in series [1] (Muscle) was 0.03 ± .55 % Kg Dose/g; in series [1] (Thyroid), 1.07 ± .55 % Kg Dose/g; in series [2] (30 min, Adrenal Cortex), 0.62 ± 0.16 % kg dose/g; in series [2] (30 min, Adrenal Medulla), 8.8 ± 2.8 % kg dose/g; in series [2] (30 min, Blood) it was 0.03 % kg dose/g; in series [2] (30 min, Heart (Left Ventricle)), 0.49 ± 0.05 % kg dose/g. Moreover, the tissue concentration (Mean + S.E.M.) in series [2] (30 min, Liver) is 0.36 ± 0.02 % kg dose/g; in series [2] (30 min, Lung), 0.88 ± 0.61 % kg dose/g; in series [2] (30 min, Muscle), 0.05 ± 0.02 % kg dose/g; in series [2] (30 min, Thyroid) it was 1.02 ± 0.06 % kg dose/g; in series [2] (2 hours, Adrenal Cortex), 0.51 ± 0.15 % kg dose/g; in series [2] (2 hours, Adrenal Medulla), 10.4 ± 0.8 % kg dose/g. Moreover, the tissue concentration (Mean + S.E.M.) in series [2] (2 hours, Blood) was 0.03 % kg dose/g; in series [2] (2 hours, Heart (Left Ventricle)), 0.52 ± 0.02 % kg dose/g; in series [2] (2 hours, Liver) it was 0.2 ± 0.02 % kg dose/g; in series [2] (2 hours, Lung), 1.26 ± 0.2 % kg dose/g; in series [2] (2 hours, Muscle), 0.04 ± 0.01 % kg dose/g; in series [2] (2 hours, Thyroid), 0.85 ± 0.11 % kg dose/g. The tissue concentration (Mean + S.E.M.) in series [2] (72 hours, Adrenal Cortex) is 0.13 ± 0.06 % kg dose/g; in series [2] (72 hours, Adrenal Medulla), 18.3 ± 1.8 % kg dose/g; in series [2] (72 hours, Blood) it was 0.02 % kg dose/g; in series [2] (72 hours, Heart (Left Ventricle)), 0.06 ± 0.01 % kg dose/g; in series [2] (72 hours, Liver), 0.05 % kg dose/g; in series [2] (72 hours, Lung) it was 0.09 ± 0.01 % kg dose/g. In addition, the tissue concentration (Mean + S.E.M.) in series [2] (72 hours, Muscle) was 0.01 % kg dose/g; in series [2] (72 hours, Thyroid), 14.6 ± 2.4 % kg dose/g; in series [3] (Blood) it was 0.08 ± .01 % Kg Dose/g; in series [3] (Left Atrium), 0.55 ± .06 % Kg Dose/g; in series [3] (Left Ventricle), 0.46 ± .05 % Kg Dose/g; in series [3] (Liver), 0.09 ± .01 % Kg Dose/g. The entries for the “tissue concentration (Mean + S.E.M.)” value in series [3] (Right Atrium), in series [3] (Right Ventricle) and in series [3] (Spleen) were 0.66 ± .05 % Kg Dose/g, 0.70 ± .02 % Kg Dose/g and 0.35 ± .01 % Kg Dose/g, respectively.

`N=C(N)NCc1ccc(N)c([131I])c1` [I-131-labeled compound, ^131 I-4-Amino-3-Iodobenzylguanidine] gave a degraded at 336 h in series [4] of under 4%.

For `N=C(N)NCc1ccc(N)c(I)c1` [4-amino-3-iodobenzylguanidine], the “accumulation in adrenergic tissues” value in series [5] is “accumulated in adrenergic tissues in a manner similar to norepinephrine and guanethidine”.

Regarding `N=C(N)NCc1ccc(N)c(I)c1` [radioiodinated compound, radioiodinated 4-amino-3-iodobenzylguanidine], the “selectivity for the adrenergic nerves of the heart” value in series [6] is “high degree of selectivity for the adrenergic nerves of the heart”.
